Experimental data from article PMC3557166, “'Le Rouge et le Noir': A decline in flavone formation correlates with the rare color of black dahlia (Dahlia variabilis hort.) flowers” (BMC Plant Biology, 2012).
Positions count from the first letter of the chain named.

Legend:
[1] = target: T1, FNS II (cv. Aurora's Kiss, GQ489010) (Dahlia pinnata, UniProt G3BGL8); experiment: […]-flavanone conversion to flavone, TLC radioscan, recombinant yeast preparation; type: biochemical; conditions: NADPH; labelled compound
T1 construct: full-length ORF in pYES2.1/V5-His-TOPO, expressed in S. cerevisiae INVSc1
T1 sequence (G3BGL8 1-513): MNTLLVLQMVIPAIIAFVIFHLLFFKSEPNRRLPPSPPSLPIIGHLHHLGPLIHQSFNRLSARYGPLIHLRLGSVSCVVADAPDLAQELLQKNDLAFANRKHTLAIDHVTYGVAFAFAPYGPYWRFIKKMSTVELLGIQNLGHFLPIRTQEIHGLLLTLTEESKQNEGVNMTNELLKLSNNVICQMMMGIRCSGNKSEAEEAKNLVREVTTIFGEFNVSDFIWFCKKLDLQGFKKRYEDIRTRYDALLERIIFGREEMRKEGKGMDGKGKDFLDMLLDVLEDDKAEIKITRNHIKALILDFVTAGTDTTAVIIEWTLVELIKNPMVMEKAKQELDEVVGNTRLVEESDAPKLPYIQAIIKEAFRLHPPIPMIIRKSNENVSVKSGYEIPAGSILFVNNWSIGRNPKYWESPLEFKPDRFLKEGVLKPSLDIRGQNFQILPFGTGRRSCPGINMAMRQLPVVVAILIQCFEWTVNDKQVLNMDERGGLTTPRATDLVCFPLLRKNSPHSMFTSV

[2] = test system: T2, recombinant FNS II (cv. Rubens GQ479808 and cv. Chat Noir GQ489009); experiment: […]-flavanone conversion to luteolin, TLC radioscan, recombinant yeast preparation; type: biochemical, Dahlia pinnata; conditions: NADPH; pH optimum 7.50; 25-30°C optimum; labelled compound; clone (GQ479808 or GQ489009) not told; read-out: apparent Km
T2 construct: full-length ORF in pYES2.1/V5-His-TOPO, expressed in S. cerevisiae INVSc1

[3] = target: T3, FNS II (cv. White Alva, GQ489011) (Dahlia pinnata, UniProt G3BGL9); experiment: […]-flavanone conversion to flavone, TLC radioscan, recombinant yeast preparation; type: biochemical; conditions: NADPH; labelled compound
T3 construct: full-length ORF in pYES2.1/V5-His-TOPO, expressed in S. cerevisiae INVSc1
T3 sequence (G3BGL9 1-513): T1 sequence (G3BGL8 1-513) with I19L, E28K, A80V, L157Q, E162K, G168S, F224C, V462I

[4] = target: T4, FNS II (cv. Alva's Supreme, GQ479807) (Dahlia pinnata, UniProt G8Z370); experiment: as above; type: biochemical; conditions: NADPH; labelled compound
T4 construct: full-length ORF in pYES2.1/V5-His-TOPO, expressed in S. cerevisiae INVSc1
T4 sequence (G8Z370 1-514): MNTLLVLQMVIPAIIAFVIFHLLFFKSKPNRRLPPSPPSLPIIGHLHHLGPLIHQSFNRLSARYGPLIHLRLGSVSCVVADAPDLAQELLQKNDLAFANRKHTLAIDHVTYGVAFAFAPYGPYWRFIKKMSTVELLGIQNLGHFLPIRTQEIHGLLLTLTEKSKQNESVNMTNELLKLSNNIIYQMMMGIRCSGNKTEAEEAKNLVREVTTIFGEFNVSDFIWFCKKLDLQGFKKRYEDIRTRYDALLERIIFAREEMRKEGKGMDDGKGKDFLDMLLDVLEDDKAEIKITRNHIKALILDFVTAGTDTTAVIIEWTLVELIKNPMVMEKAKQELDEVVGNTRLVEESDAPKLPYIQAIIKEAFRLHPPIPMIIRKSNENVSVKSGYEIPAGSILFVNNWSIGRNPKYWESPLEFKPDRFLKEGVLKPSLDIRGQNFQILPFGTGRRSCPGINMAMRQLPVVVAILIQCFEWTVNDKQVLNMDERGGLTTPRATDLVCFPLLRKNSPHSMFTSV

[5] = target: T5, FNS II (cv. Chat Noir, GQ489008) (Dahlia pinnata, UniProt G3BGL6); experiment: as above; type: biochemical; conditions: NADPH; labelled compound
T5 construct: full-length ORF in pYES2.1/V5-His-TOPO, expressed in S. cerevisiae INVSc1
T5 sequence (G3BGL6 1-514): T4 sequence (G8Z370 1-514) with I11V, P83L, Y184C, F499L, L501S

[6] = target: T6, FNS II (cv. Rubens, GQ479809) (Dahlia pinnata, UniProt G8Z372); experiment: as above; type: biochemical; conditions: NADPH; labelled compound
T6 construct: full-length ORF in pYES2.1/V5-His-TOPO, expressed in S. cerevisiae INVSc1
T6 sequence (G8Z372 1-513): T1 sequence (G3BGL8 1-513) with F24V, E162K, G168S, K421E, D482N, T489A, S512L

[7] = target: T7, FNS II (cv. Feuerschein, GQ479806) (Dahlia pinnata, UniProt G8Z369); experiment: as above; type: biochemical; conditions: NADPH; labelled compound
T7 construct: gene DvFNS1; full-length ORF in pYES2.1/V5-His-TOPO, expressed in S. cerevisiae INVSc1
T7 sequence (G8Z369 1-514): T4 sequence (G8Z370 1-514) with Y184C, D266E

[8] = test system: T2, recombinant FNS II (cv. Rubens GQ479808 and cv. Chat Noir GQ489009); experiment: […]-flavanone conversion to apigenin, TLC radioscan, recombinant yeast preparation; type: biochemical, Dahlia pinnata; conditions: NADPH; pH optimum 6.50; 25-30°C optimum; labelled compound; clone (GQ479808 or GQ489009) not told; read-out: apparent Km

Row | SMILES | 14C-flavanone conversion to flavone, TLC radioscan, recombinant yeast preparatio [1] | Km [2] | 14C-flavanone conversion to flavone, TLC radioscan, recombinant yeast preparatio [3] | 14C-flavanone conversion to flavone, TLC radioscan, recombinant yeast preparatio [4] | 14C-flavanone conversion to flavone, TLC radioscan, recombinant yeast preparatio [5] | 14C-flavanone conversion to flavone, TLC radioscan, recombinant yeast preparatio [6] | 14C-flavanone conversion to flavone, TLC radioscan, recombinant yeast preparatio [7] | Km [8]
1 | O=C1C[C@@H](c2ccc(O)c(O)c2)Oc2cc(O)cc(O)c21 [eriodictyol] | formation of apigenin and luteolin from naringenin and eriodictyol, respectively | 4.2 µM | formation of apigenin and luteolin from naringenin and eriodictyol, respectively | formation of apigenin and luteolin from naringenin and eriodictyol, respectively | formation of apigenin and luteolin from naringenin and eriodictyol, respectively | formation of apigenin and luteolin from naringenin and eriodictyol, respectively | formation of apigenin and luteolin from naringenin and eriodictyol, respectively | 
2 | O=C1C[C@@H](c2ccc(O)cc2)Oc2cc(O)cc(O)c21 [naringenin] | formation of apigenin and luteolin from naringenin and eriodictyol, respectively |  | formation of apigenin and luteolin from naringenin and eriodictyol, respectively | formation of apigenin and luteolin from naringenin and eriodictyol, respectively | formation of apigenin and luteolin from naringenin and eriodictyol, respectively | formation of apigenin and luteolin from naringenin and eriodictyol, respectively | formation of apigenin and luteolin from naringenin and eriodictyol, respectively | 3.86 µM
